Columns and labels:
JAK3 kinase = molecular target: T1, JAK3 kinase (Homo sapiens, UniProt P52333); assay: Mobility shift assay, in vitro JAK3 kinase inhibitory activity; type: biochemical
T1 sequence (P52333 1-1124): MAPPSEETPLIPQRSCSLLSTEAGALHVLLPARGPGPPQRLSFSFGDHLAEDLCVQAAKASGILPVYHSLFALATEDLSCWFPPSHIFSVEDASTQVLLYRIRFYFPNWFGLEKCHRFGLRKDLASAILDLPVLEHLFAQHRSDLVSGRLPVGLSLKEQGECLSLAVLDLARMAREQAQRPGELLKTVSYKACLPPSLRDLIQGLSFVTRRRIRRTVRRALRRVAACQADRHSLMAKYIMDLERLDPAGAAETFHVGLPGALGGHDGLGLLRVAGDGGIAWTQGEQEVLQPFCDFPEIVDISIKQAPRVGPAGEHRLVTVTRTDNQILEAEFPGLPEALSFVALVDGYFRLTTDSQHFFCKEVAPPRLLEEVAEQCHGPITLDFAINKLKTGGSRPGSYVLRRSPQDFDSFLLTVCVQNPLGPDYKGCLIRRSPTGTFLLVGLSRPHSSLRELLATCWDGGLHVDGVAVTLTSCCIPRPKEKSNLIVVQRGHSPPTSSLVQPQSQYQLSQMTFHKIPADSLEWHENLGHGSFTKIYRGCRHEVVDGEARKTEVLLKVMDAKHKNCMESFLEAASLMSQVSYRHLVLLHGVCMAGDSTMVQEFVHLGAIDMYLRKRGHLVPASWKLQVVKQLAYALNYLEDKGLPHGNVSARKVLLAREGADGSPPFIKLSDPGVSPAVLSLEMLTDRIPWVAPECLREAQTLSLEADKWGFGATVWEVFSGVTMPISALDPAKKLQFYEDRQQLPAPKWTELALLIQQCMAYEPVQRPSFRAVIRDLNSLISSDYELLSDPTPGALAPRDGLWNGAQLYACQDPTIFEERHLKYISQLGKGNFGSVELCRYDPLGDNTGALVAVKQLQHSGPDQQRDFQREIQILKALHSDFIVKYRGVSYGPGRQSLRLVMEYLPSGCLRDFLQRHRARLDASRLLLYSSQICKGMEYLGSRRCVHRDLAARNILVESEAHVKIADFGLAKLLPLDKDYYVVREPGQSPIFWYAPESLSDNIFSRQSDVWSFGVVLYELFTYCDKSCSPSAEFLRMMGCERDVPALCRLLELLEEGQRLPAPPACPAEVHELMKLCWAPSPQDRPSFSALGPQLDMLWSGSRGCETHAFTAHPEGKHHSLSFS
Procedure: A Mobility shift assay was adopted to detect compounds to be tested (see list below) for in vitro inhibitory activity on the enzyme activity of JAK3 kinase.
The compound was dissolved in 100% DMSO to formulate a 10 mM stock solution, which was stored in a −20° C. refrigerator with protection from light.
The compounds were diluted with gradients into solutions with a final concentration of 100 times in a 384-well plate. Then 250 nL was transferred to a 384 reaction plate with Echo550 for later use. 250 nL of 100% DMSO was added into the negative control well and the positive control well respectively. • (3) A kinase solution with a final concentration of 2.5 times was formulated with the 1× Kinase buffer. • (4) The compound wells and the positive control wells were added with 10 μL of the kinase solution with the final concentration of 2.5 times respectively; the negative control wells were added with 10 μL of the 1× Kinase buffer. • (5) The wells were centrifuged at 1,000 rpm for 30 seconds, mixed well by shaking, and then incubated at room temperature for 10 minutes. • (6) A mixed solution of ATP and Kinase substrate 22 with a final concentration of 25/15 times was formulated with a 1× Kinase buffer. • (7) The compound wells, positive control wells and negative control wells of the 384 reaction plate were respectively added with 15 μL of a mixed solution of ATP and the substrate at the final concentration of 25/15 times to start the reaction. • (8) The 384-well plate was centrifuged at 1,000 rpm for 30 seconds, mixed well by shaking, and then incubated at room temperature for 30 minutes. • (9) 30 μL of a detection termination solution was added to stop the kinase reaction, centrifuged at 1,000 rpm for 30 seconds, and mixed well by shaking. • (10) The conversion rate was read with Caliper EZ Reader.
% Inhibition=(Conversion %_max−Conversion %_sample)/(Conversion %_max−Conversion %_min)×100 (1) Calculation Equation
Among them: Conversion %_sample was the conversion rate reading of the sample; Conversion %_min was the mean value of the negative control wells, representing the conversion rate reading of the wells without enzyme activity; Conversion % max was the mean value of the positive control wells, representing the conversion rate reading of the wells without compound inhibition; and % Inhibition represented the percentage inhibition rate.
• by taking the log value of concentration as the X axis and taking the percent inhibition rate as the Y axis, a dose-response curve is fitted by adopting the log (inhibitor) vs. response-Variable slope of the analysis software GraphPad Prism 5, so as to obtain the IC50 value of each compound on the enzyme activity. The calculation equation was Y=Bottom+ (Top−Bottom)/(1+10^((Log IC50−X)*HillSlope)).

TYK2 = TYK2 (Homo sapiens, UniProt P29597); assay: Kinase selectivity experiment, mobility shift assay, TYK2; type: biochemical; details: Example 137
Chain of TYK2 (P29597 whole entry, species assumed): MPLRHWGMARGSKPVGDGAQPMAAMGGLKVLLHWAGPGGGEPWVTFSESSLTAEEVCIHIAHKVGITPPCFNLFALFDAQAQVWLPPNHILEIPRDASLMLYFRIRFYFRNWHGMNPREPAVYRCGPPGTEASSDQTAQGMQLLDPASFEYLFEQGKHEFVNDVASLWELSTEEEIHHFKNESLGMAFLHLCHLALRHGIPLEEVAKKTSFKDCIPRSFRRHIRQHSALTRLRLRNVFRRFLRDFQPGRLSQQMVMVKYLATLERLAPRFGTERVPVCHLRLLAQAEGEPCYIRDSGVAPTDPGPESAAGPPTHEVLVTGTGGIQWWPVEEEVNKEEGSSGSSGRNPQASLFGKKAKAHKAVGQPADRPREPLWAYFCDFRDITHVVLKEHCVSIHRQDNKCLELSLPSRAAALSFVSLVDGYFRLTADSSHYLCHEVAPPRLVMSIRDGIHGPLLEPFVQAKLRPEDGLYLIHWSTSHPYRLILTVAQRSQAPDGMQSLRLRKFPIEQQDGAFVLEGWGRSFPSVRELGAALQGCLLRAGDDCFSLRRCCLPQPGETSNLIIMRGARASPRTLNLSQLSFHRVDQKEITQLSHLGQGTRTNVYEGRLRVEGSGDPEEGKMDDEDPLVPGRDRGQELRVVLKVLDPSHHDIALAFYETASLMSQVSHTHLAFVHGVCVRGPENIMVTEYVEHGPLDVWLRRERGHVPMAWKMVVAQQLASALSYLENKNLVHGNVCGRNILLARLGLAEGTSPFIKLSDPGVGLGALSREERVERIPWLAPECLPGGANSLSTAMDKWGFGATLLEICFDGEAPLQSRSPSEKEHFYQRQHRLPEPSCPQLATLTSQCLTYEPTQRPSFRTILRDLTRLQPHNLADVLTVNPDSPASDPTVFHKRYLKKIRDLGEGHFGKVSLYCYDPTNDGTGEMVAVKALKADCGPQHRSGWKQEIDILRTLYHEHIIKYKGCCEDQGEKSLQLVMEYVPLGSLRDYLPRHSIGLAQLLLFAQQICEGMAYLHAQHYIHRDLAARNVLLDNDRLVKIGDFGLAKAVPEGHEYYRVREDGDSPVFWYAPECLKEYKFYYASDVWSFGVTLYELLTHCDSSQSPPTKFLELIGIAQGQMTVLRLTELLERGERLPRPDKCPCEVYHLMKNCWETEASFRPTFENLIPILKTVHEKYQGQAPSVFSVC
Procedure: (§1) The compounds were diluted with gradients into solutions with a final concentration of 100 times in a 384-well plate. Then 250 nL was transferred to a 384 reaction plate with Echo550 for later use. […]

JAK1 = JAK1 (Homo sapiens, UniProt P23458); assay: Kinase selectivity experiment, mobility shift assay, JAK1; type: biochemical; details: Example 137
Chain of JAK1 (P23458 whole entry, species assumed): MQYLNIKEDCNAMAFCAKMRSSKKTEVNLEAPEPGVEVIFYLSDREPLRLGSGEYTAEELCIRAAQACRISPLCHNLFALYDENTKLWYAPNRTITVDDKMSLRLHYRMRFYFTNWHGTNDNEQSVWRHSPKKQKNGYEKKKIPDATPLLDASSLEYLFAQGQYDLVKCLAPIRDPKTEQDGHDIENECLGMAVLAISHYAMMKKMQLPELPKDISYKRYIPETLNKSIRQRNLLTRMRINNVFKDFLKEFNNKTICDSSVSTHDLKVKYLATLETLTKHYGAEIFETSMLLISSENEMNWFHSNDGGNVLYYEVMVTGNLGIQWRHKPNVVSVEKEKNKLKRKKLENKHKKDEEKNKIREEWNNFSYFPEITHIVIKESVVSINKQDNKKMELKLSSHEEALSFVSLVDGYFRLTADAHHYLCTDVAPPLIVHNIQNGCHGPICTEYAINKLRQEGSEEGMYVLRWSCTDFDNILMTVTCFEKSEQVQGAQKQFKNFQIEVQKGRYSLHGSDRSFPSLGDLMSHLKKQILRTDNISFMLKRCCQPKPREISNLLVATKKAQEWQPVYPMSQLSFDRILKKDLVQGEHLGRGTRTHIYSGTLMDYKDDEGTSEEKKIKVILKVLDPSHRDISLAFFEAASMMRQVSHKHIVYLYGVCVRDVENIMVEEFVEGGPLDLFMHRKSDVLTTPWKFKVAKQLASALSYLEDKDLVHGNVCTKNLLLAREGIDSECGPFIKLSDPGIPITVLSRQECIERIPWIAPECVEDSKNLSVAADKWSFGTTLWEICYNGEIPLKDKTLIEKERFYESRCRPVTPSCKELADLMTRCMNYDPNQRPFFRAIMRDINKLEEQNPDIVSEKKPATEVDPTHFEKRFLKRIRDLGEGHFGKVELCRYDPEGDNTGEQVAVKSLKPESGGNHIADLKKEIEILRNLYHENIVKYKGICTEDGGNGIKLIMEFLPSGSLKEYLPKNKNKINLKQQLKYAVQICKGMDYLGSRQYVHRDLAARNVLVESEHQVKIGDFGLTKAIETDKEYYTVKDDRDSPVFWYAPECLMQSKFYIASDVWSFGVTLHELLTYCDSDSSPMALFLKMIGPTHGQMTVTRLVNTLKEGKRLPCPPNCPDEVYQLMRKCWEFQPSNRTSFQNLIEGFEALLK
Procedure: as §1

JAK2 = JAK2 (Homo sapiens, UniProt O60674); assay: Kinase selectivity experiment, mobility shift assay, JAK2; type: biochemical; details: Example 137
Chain of JAK2 (O60674 whole entry, species assumed): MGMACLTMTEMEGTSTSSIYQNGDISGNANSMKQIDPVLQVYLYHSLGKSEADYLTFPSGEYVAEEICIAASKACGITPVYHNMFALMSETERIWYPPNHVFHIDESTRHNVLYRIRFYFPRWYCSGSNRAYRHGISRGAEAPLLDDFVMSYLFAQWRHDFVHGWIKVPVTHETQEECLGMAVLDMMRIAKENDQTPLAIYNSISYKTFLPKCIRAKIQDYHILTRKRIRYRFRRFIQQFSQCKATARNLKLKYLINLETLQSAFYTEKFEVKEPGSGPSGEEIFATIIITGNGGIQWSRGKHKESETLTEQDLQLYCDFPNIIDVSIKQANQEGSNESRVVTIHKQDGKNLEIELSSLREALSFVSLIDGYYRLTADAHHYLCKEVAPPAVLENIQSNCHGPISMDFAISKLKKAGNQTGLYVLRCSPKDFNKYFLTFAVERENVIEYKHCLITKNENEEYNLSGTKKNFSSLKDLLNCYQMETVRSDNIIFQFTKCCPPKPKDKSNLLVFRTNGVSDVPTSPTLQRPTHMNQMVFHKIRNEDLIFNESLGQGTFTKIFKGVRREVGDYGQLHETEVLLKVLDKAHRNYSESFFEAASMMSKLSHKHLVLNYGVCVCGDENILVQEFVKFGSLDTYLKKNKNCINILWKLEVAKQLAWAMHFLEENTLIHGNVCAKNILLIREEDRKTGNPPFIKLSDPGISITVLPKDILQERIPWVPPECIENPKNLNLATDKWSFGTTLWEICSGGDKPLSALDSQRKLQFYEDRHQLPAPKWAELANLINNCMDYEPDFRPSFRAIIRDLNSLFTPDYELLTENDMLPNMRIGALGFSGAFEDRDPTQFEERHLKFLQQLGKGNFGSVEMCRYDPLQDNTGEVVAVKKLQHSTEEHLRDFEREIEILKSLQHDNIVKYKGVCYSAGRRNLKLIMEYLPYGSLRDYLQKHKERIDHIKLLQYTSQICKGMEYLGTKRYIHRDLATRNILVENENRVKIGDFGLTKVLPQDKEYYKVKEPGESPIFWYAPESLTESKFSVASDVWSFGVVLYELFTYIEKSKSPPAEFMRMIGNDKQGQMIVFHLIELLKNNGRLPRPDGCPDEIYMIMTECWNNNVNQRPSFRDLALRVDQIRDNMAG
Procedure: as §1

[1] = test system: p-STAT5 under stimulation with IL-15 in PBMCs; assay: IL-15 stimulated hPBMC p-STAT5 ELISA; type: cell-based; details: Homo sapiens, PBMC, 45 min compound, 30 min IL-15, ELISA
Procedure: Based on the mechanism of the JAK-STAT pathway, the cytokine IL-15 was adopted to stimulate hPBMC cells, and the downstream STAT5 phosphorylation level was taken as a detection indicator to evaluate the effect of the compound on the JAK-STAT pathway.
• 1. Seeding plate for PBMC cell counting: 90 μL of PBMCs were seeded in a 96-well plate (PBMC cell density: 80,000/well). • 2. Treatment of compound to be tested: after the cells were seeded on the plate, administration treatment was performed immediately. The drug to be tested was 5 μL/well (with final concentration of 1, 0.5, 0.1, 0.05, 0.01, and 0.005 μM), and the plate was incubated in a 37° C. incubator for 45 min. • 3. Stimulation with cytokine IL-15: the cells were stimulated with 5 μL of IL-15 and incubated at 37° C. for 30 min. • 4. Protein sample collection: the cells were collected in a centrifuge tube and centrifuged for 5 min. The supernatant was discarded after the centrifuging, and the cells were lysed with 1× Cell Extraction Buffer PTR. • 5. p-STAT5 detection: detection was conducted according to the requirements of a ELISA kit.
Experimental results: IC50 values of compounds on p-STAT5 under stimulation with IL-15 in PBMCs

SRBC mouse model = assay: SRBC-induced delayed type hypersensitivity (DTH) in mice; type: in vivo; details: male Balb/c mice, 100 mg/kg by gavage once a day, day 0 to day 6, FIG. 1
Procedure: PF-06651600 was used as a positive control compound.
Drug preparation: the compound was weighed and added with a 0.5% CMC-Na solution to prepare a drug suspension (with an administration dose of 10 mg/mL).
Induction of delayed type hypersensitivity (DTH) and administration: 30 male Balb/c mice were weighed and randomly divided into 6 groups according to body weight, with 5 mice in each group. The experimental period lasted for 7 days in total. On day 0, the mice were subcutaneously injected with sheep red blood cells (SRBCs) for sensitization. From day 0, the mice were administrated with 100 mg/kg by gavage (once a day) until day 6. On day 6, SRBCs were injected into the right hind foot pad of the mice for excitation. On day 7 of the experiment, measurements were conducted, photographs were taken, and the experiment was ended.
Pharmacodynamic detection indicators of disease models: the detection and observation indicators were the degree of redness and swelling and detected thicknesses of paw pads of the mice in the model group as induced by SRBC. The thickness of the right paw was measured as the baseline before the SRBC injection excitation on day 6. At the end of the experiment […], the thickness of the right paw was measured again, and the difference in thickness of the paw before and after the second injection was calculated.
Statistical processing: experimental data was expressed as mean±standard deviation (Mean±SD). All data was statistically analyzed using a T-test. P<0.05 was considered to be statistically different.

[2] = test system: collagen-induced mouse arthritis model; assay: Collagen-induced mouse arthritis model (mCIA); type: in vivo, DBA/1J mice; details: female DBA/1J CIA mice, 50 mg/kg once a day, FIG. 2; for arthritis scores: compared to the model group
Description: Objective of Experiment: to test the immunosuppressive activity of YZ001052 in a mCIA model. PF-06651600 was used as a positive control compound.
Complete and incomplete Freund's adjuvants were mixed with a chicken type II collagen solution in equal proportions to form an emulsifier. Except for the blank control group, on Day 0, a mixture of a complete Freund's adjuvant and the chicken type II collagen solution was subcutaneously injected into the tail roots and thigh roots of the mice, with 100 μL being injected subcutaneously at the tail root of each mouse; and 50 μL being injected subcutaneously at each of the two thigh roots of each mouse (primary immunization). On day 21, the mice were subcutaneously injected with 200 μL of a mixture of an incomplete Freund's adjuvant and the chicken type II collagen solution as a booster injection (second immunization). […] Measurement of paw thickness: the thicknesses of the left and right hind feet of the mice were measured with a vernier caliper to serve as the paw swelling degree and recorded, and the detection frequency was once every 3 days.

[3] = test system: DSS-induced mouse inflammatory bowel disease model; assay: DSS-induced mouse inflammatory bowel disease model; type: in vivo; details: female C57BL/6 mice, 5% DSS, 50 mg/kg once a day, day 8, compared with model group, FIG. 3
Procedure: Objective of Experiment: to test the immunosuppressive activity of YZ001052 in a DSS-induced mouse inflammatory bowel disease model. PF-06651600 was used as a positive control compound.
50 g of DSS was weighed, added with 1,000 mL of sterile water, formulated into a 5% DSS solution, and filtered with a 0.22 μm filter membrane. From day 0, the blank group was given drinking water without DSS, and the other experimental groups were given drinking water containing 5% DSS. All mice were sacrificed on day 8. After the experiment was ended, the colorectum was collected, and photographed, and its length was measured for statistical analysis.

[4] = test system: radiation-induced lung injury mouse model; assay: Mouse model of acute radiation-induced lung injury; type: in vivo; details: female C57BL/6 mice, 22.5 Gy whole lung irradiation, 30 mg/kg q.d, 3 weeks after modeling
Procedure: 18 female C57BL/6 mice were randomly divided into 3 groups, namely a blank control group, a group treated with irradiation alone, and a group intervened with irradiation+drug YZ001052 (30 mg/kg q.d), with 6 mice in each group.
The mice were anesthetized by intraperitoneal injection of 1% pentobarbital sodium, and were subjected to a single whole lung irradiation at 22.5 Gy, with 220 KV of X-rays by using a small animal radiation research platform (SARRP). After the irradiation was completed, the mice were fed routinely.
3 weeks after modeling, the mice were anesthetized and dissected. The lung tissue was exposed, the left lung was ligated, an open tracheotomy was performed, the lung was lavaged with cold PBS, and the bronchoalveolar lavage fluid (BALF) was collected and subjected to refrigerated centrifugation at 4° C.
The supernatant was collected, and detected for the content of the inflammatory factor TNF-α by ELISA.
The cell pellet of the alveolar lavage fluid was resuspended in 200 μL PBS and used for counting of white blood cells (WBCs).

[5] = mobility shift assay, Example 136

SMILES | IC50 (TYK2) [nM] | IC50 (JAK1) [nM] | IC50 (JAK2) [nM] | IC50 (JAK3 kinase; [5]) [nM] | IC50 [1] [nM] | immunosuppressive effect on SRBC-induced delayed type hypersensitivity (right paw thickness) (SRBC mouse model) | swelling of the paws [2] | arthritis scores [2] | also measured
C=CC(=O)N1C[C@H](Nc2ncnc3[nH]ccc23)CC[C@@H]1C [PF-06651600, reference compound] |  |  |  |  | 85 |  | improved to varying degrees | significantly reduced | 
C=CC(=O)N1CCc2c(c(-c3ccnc4[nH]ccc34)nn2C)C1 [YZ001052] |  |  |  |  |  | significant immunosuppressive effects | improved to varying degrees | significantly reduced | length of the colorectum [3]: significantly increased; TNF-α level in the alveolar lavage fluid ([4]; ELISA, FIG. 4): good inhibitory effect; number of white blood cells (inflammatory cell infiltrates) in the alveolar lavage fluid ([4]; FIG. 5): significantly reduce

Continued, in another order:

IC50 (TYK2) [nM] | IC50 (JAK1) [nM] | IC50 (JAK2) [nM] | IC50 (JAK3 kinase; [5]) [nM] | SMILES | IC50 [1] [nM] | immunosuppressive effect on SRBC-induced delayed type hypersensitivity (right paw thickness) (SRBC mouse model) | swelling of the paws [2] | arthritis scores [2] | also measured
> 10000 | > 10000 | > 10000 |  | C[C@@H]1Cn2ncc(-c3ccnc4[nH]ccc34)c2CN1C(=O)/C=C/CN(C)C [YZ001005] |  |  |  |  | IC50 (JAK3 kinase; selectivity table, Example 137): 16 nM
 |  |  | 1.2 | C=C(F)C(=O)N1Cc2c(-c3ccnc4[nH]ccc34)cnn2C[C@H]1CCS(C)(=O)=O [YZ001075] | 31.7 |  |  |  | 
 |  |  | 0.7 | C=CC(=O)N1CCc2[nH]nc(-c3ccnc4[nH]ccc34)c2C1 [YZ001065] | 26.3 | significant immunosuppressive effects |  |  | 
> 10000 | > 10000 | > 10000 |  | C=CC(=O)N1Cc2c(-c3ccnc4[nH]ccc34)cnn2C[C@H]1C [YZ001001] |  |  |  |  | 
